Experimental data taken from patent US20160101106A1, “METHODS FOR TREATING HCV INFECTION” (Inhibikase Therpeutics, Inc., priority 2013, published 2016).
Like-named read-outs stand apart in the source and are kept apart here.

Experiments:
Format in all cases: cell-based, HCV
HCVcc GT2a = test: Synergistic antiviral potency against HCVcc (AZ-628 with direct-acting antivirals); details: for EC50: read-out: EC50 alone
Procedure: The tested RAF inhibitors were evaluated for an ability to synergize with other current, late stage or marketed direct-acting antivirus (DAAs).

HCVcc, Genotype 2a = test: HCVcc inhibitor assay in Huh 7.5 cells, Renilla luciferase readout; details: Hepatitis C virus, Huh-7.5.1
Procedure: The secondary screen, for anti-HCV activity utilized HCVcc, a lab-adapted full infection cycle virus, to evaluate the effect of Raf inhibition on viral entry. The HCVcc inhibitor assay uses Huh 7.5 cells and HCVcc containing the luciferase gene generated from pJ6/JFH1-p7Rluc. Briefly cells are plated one day prior to assay. On the day of assay, media is aspirated. The cells are pre-treated with 100 μl of 1X compound. After 1 h pretreatment, compound containing media is aspirated, HCVcc diluted 1x compound is added to each well. Toxicity plates receive only the test compound in tissue culture medium. […] Compound cytotoxicity is assessed by MTS (CellTiter® 96 Reagent, Promega, Madison Wis.) dye reduction. The % reduction in viral entry is determined and reported. […]
The plasmids carrying HCV J6/JFH1 genome, or chimeric mCon1/JFH1 or mH77/JFH1 genome and Rluc reporter gene were kindly provided by Dr. Charles Rice at Rockefeller University. […] HCVcc infectivity was determined by TCID50 assay. […] The number of HCV positive cells was counted. The TCID50 was calculated according to the Reed and Muench method.
The format of the test plate has been standardized by SOUTHERN. […] Samples were evaluated for antiviral efficacy with triplicate measurements using 6 concentrations at half-log (or other) dilutions in order to determine EC50 values and cellular cytotoxicity, if detectable. […]

HCVpp, Genotype 1b = test: microbe, parasite or virus in culture
[1] = Genotype 1b, luciferase tagged HCV GT-1b pseudotyped virus, Huh 7.5.1, ≧80% confluent cells, MOI 0.02, read-out: EC50

Molecule Cc1ccc(NC(=O)c2cccc(C(C)(C)C#N)c2)cc1Nc1ccc2ncn(C)c(=O)c2c1 [AZ-628] has an inhibition at 0.025 µM (HCVcc GT2a; Hepatitis C virus, GT2A, IkT-064 25 nM, GS-7977 0 nm) of 0%, an inhibition at 0.05 µM (HCVcc GT2a; Hepatitis C virus, GT2A, IkT-064 50 nM, GS-7977 0 nm) of 0% and an inhibition at 0.1 µM (HCVcc GT2a; Hepatitis C virus, GT2A, IkT-064 100 nM, GS-7977 0 nm) of 0%. It also gave an inhibition at 0.2 µM (HCVcc GT2a; Hepatitis C virus, GT2A, IkT-064 200 nM, GS-7977 0 nm) of 5.15%, an inhibition at 0.4 µM (HCVcc GT2a; Hepatitis C virus, GT2A, IkT-064 400 nM, GS-7977 0 nm) of 73.4% and an EC50 (HCVcc GT2a; Hepatitis C virus) of 300 nM. The “% antiviral inhibition” value (HCVcc GT2a; IkT-064 25 nM, BMS-790052 0 pM) was 2.83%, the “% antiviral inhibition” value (HCVcc GT2a; IkT-064 200 nM, BMS-790052 0 pM) was 17.39% and the “% antiviral inhibition” value (HCVcc GT2a; IkT-064 400 nM, BMS-790052 0 pM) was 74.25%. It also gave an EC50 (HCVcc, Genotype 2a) of 120 nM and an EC50 (HCVpp, Genotype 1b; Hepatitis C virus, Huh-7.5.1) of 420 nM.

In the case of COC(=O)N[C@H](C(=O)N1CCC[C@H]1c1ncc(-c2ccc(-c3ccc(-c4cnc([C@@H]5CCCN5C(=O)[C@@H](NC(=O)OC)C(C)C)[nH]4)cc3)cc2)[nH]1)C(C)C [BMS-790052], the EC50 (HCVcc GT2a; Hepatitis C virus, Genotype 2a, single drug) is reported as 0.1 nM, the “% antiviral inhibition” value (HCVcc GT2a; IkT-064 0 nM, BMS-790052 0.781 pM) is reported as 0% and the “% antiviral inhibition” value (HCVcc GT2a; IkT-064 0 nM, BMS-790052 1.563 pM) is reported as 0%. The “% antiviral inhibition” value (HCVcc GT2a; IkT-064 0 nM, BMS-790052 3.125 pM) was 8.7%, the “% antiviral inhibition” value (HCVcc GT2a; IkT-064 0 nM, BMS-790052 6.25 pM) was 8.72% and the “% antiviral inhibition” value (HCVcc GT2a; IkT-064 0 nM, BMS-790052 12.5 pM) was 17.27%. For the same molecule, the “% antiviral inhibition” value (HCVcc GT2a; IkT-064 0 nM, BMS-790052 25 pM) was 19.54%, the “% antiviral inhibition” value (HCVcc GT2a; IkT-064 0 nM, BMS-790052 50 pM) was 33.86% and the “% antiviral inhibition” value (HCVcc GT2a; IkT-064 0 nM, BMS-790052 100 pM) was 59.54%.

With CC(C)OC(=O)[C@H](C)N[P@](=O)(OC[C@H]1O[C@@H](n2ccc(=O)[nH]c2=O)[C@](C)(F)[C@@H]1O)Oc1ccccc1 [GS-7977] the EC50 (HCVcc GT2a; Genotype 2a, single drug) was 250 nM, the “Fold Synergy” value (HCVcc GT2a; Genotype 2a, with AZ-628) was 5 and the “% antiviral inhibition” value (HCVcc GT2a; IkT-064 0 nM, GS-7977 1.563 nm) was 0%. For the same molecule, the “% antiviral inhibition” value (HCVcc GT2a; IkT-064 0 nM, GS-7977 3.125 nm) was 0%, the “% antiviral inhibition” value (HCVcc GT2a; IkT-064 0 nM, GS-7977 6.25 nm) was 0% and the “% antiviral inhibition” value (HCVcc GT2a; IkT-064 0 nM, GS-7977 12.5 nm) was 0%. For the same molecule, the “% antiviral inhibition” value (HCVcc GT2a; IkT-064 0 nM, GS-7977 25 nm) was 2.65%, the “% antiviral inhibition” value (HCVcc GT2a; IkT-064 0 nM, GS-7977 50 nm) was 11.54% and the “% antiviral inhibition” value (HCVcc GT2a; IkT-064 0 nM, GS-7977 100 nm) was 21.51%. For the same molecule, the “% antiviral inhibition” value (HCVcc GT2a; IkT-064 0 nM, GS-7977 200 nm) was 44.74%.

Work on CC(C)(C)c1nc(-c2cccc(NS(=O)(=O)c3c(F)cccc3F)c2F)c(-c2ccnc(N)n2)s1 [GSK2118436/dabrafinib] yielded an EC50 (HCVpp, Genotype 1b; [1]) of over 5000 nM.

For Cn1c(Nc2ccc(C(F)(F)F)cc2)nc2cc(Oc3ccnc(-c4ncc(C(F)(F)F)[nH]4)c3)ccc21 [Raf265], the EC50 (HCVcc, Genotype 2a) was 1050 nM and the EC50 (HCVpp, Genotype 1b; Hepatitis C virus, Huh-7.5.1) was 890 nM.

CCCS(=O)(=O)Nc1ccc(F)c(C(=O)c2c[nH]c3ncc(-c4ccc(Cl)cc4)cc23)c1F [Zelboraf/PLX4032] showed an EC50 (HCVpp, Genotype 1b; [1]) of over 5000 nM.

CNC(=O)c1cc(Oc2ccc(NC(=O)Nc3ccc(Cl)c(C(F)(F)F)c3)cc2)ccn1 [sorafenib] was tested, and the EC50 (HCVpp, Genotype 1b; Hepatitis C virus, Huh-7.5.1) was 1810 nM.
